In patent US20240300997A1, “PROTEIN FOLDING AGENT” (TOHOKU UNIVERSITY, priority 2021, published 2024):

What was measured:
[1] = target: T1, reduced and denatured β2m (β2-microglobulin) (Homo sapiens, UniProt P61769); test: Disulfide bond introduction ability into reduced and denatured β2m (reversed-phase HPLC); assay type: biochemical; conditions: 1 mM thiol compound and 0.2 mM disulfide compound
T1 construct: made in house; host or cells: E. coli
Procedure: β2m was expressed as a recombinant by an E. coli expression system, and the collected cells were suspended in lysate A (50 mM Tris-HCl, pH 8.1; 300 mM NaCl), followed by ultrasonic disintegration. The fraction obtained after centrifugation was incubated in the presence of 8 M urea and 20 mM DTT at pH 8.0 and 50° C. for 3 hours, followed by purification by reversed-phase column chromatography (Hitachi) using a Cosmosil 5C18-AR-II column. • Reference Document 1: M. Okumura, H. Kadokura, S. Hashimoto, K. Yutani, S. Kanemura, T. Hikima, Y. Hidaka, L. Ito, K. Shiba, S. Masui, D. Imai, S. Imaoka, H. Yamaguchi, K. Inaba, Inhibition of the functional interplay between endoplasmic reticulum (ER) oxidoreduclin-1α (Ero1α) and protein-disulfide isomerase (PDI) by the endocrine disruptor bisphenol A. J Biol Chem. 2014 289(39): 27004-27018. • Reference Document 2: J. S. Weissman, P. S. Kim, Reexamination of the folding of BPTI: predominance of native intermediates. Science 1991 253 (5026): 1386-93. • Reference Document 3: M. M. Lyles, H. F. Gilbert Catalysis of the oxidative folding of ribonuclease A by protein disulfide isomerase: dependence of the rate on the composition of the redox buffer. Biochemistry. 1991 30 (3): 613-9.
A buffer having the following combinations of 1 mM of a thiol compound and 0.2 mM of a disulfide compound (50 mM Tris-HCl, pH 7.5; 300 mM NaCl) was incubated at 30° C. with 10 μM of the reduced and denatured β2m prepared in the above 8), followed by a folding reaction.
The reaction solution was dispensed over time, followed by adding an equal amount of 6 M guanidine hydrochloric acid and 1.5 M HCl, and the disulfide bond introduction reaction was quenched. In order to identify the molecular species in the reaction solution, the resultant was subjected to reversed-phase HPLC, and an oxidation type (N) and a reduction type (R) of β2m were analyzed (FIG. 4A to FIG. 4C and FIG. 5). […]
Measurement and analysis conditions of the reversed-phase HPLC are shown below. 5C18-AR2 column (4.6×150 mm; NACALAI TESQUE) was used as a column, and an absorbance at 229 nm was detected. […]

native type β2m = target: T2, native type β2m (Homo sapiens, UniProt P61769); test: β2m aggregation experiment by heating; assay type: biochemical; conditions: 1 mM thiol compound; for appearance of the solution after cooling (before centrifugation): 10 µM native type β2m, heated from 25° C. to 50° C., 10 minutes, cooled to 25° C., FIG. 8; for residual rate of the native type β2m in the supernatant liquid: after heating to 50° C. and centrifugation, absorbance at 280 nm, FIG. 9
T2 construct: made in house; host or cells: E. coli
Procedure: A buffer containing 10 µM of native type β2m (50 mM Tris-HCl, pH 7.5; 300 mM NaCl) was heated from 25° C. to 50° C., equilibrated for 10 minutes when the temperature reached 50° C., and then cooled to 25° C. For a supernatant liquid of the fraction obtained after centrifugation, a residual rate of the native type β2m in the supernatant liquid was measured by measuring an absorbance at 280 nm using a spectrophotometer.
For a buffer containing 10 µM of native type β2m (50 mM Tris-HCl, pH 7.5; 300 mM NaCl), 1 mM of the following thiol compound was added, and the obtained mixture was heated from 25° C. to 50° C., equilibrated for 10 minutes when the temperature reached 50° C., and then cooled to 25° C.
For a supernatant liquid of the fraction obtained after centrifugation, a residual rate of the native type β2m in the supernatant liquid was measured by measuring an absorbance at 280 nm using a spectrophotometer.

T2 sequence (P61769 21-119): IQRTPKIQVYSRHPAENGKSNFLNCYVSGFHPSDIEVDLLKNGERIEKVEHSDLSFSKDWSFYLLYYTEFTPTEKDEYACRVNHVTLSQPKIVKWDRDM
T1 sequence (P61769 21-119): as above

Compound | reaction rate constant of the disulfide bond introduction reaction (pseudo-first-order reaction) [1] | appearance of the solution after cooling (before centrifugation) (native type β2m) | residual rate of the native type β2m in the supernatant liquid (native type β2m)
NCCNCCSSCCNCCN [LDA-SS] | 6.96×10^−4 | – | –
NCC(CN)SSC(CN)CN [BDA-SS] | 3.59×10^−2 | – | –
NCC(S)CN [BDA-SH, 1,3-diaminopropane-2-thiol] | – | transparent | higher than that in the case of no additive and in the case of GSH
NCCNCCS [LDA-SH, 2-((2-aminoethyl)amino)ethane-1-thiol] | – | transparent | higher than that in the case of no additive and in the case of GSH
oxidized glutathione [GSSG, reference compound] | 1.12×10^−4 | – | –
